ChEMBL document CHEMBL1201862, “PubChem BioAssay data set” (2004)
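48-hour exposure; five concentrations; linearly interpolated endpoints. The concentration for 50% growth inhibition is given as GI50.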 Calls of active or inactive are those of the source. No stated cut-off is given here; in the data, active = GI50 up to about 1.1 µM and inactive = higher.

How the values were obtained:
Test in all cases: NCI anticancer screen, dose series, 48 h
[1] = system: SK-MEL-2
[2] = system: A549
[3] = system: Hs-578T
[4] = system: OVCAR-4
[5] = system: MDA-MB-435
[6] = system: MCF7
[7] = system: HOP-92
[8] = system: SF-268
[9] = system: EKVX
[10] = system: SK-MEL-28
[11] = system: SN12C
[12] = system: Malme-3M
[13] = system: MDA-MB-231
[14] = system: MDA-N
[15] = system: SK-MEL-5
[16] = system: SW-620
[17] = system: SR
[18] = system: KM12
[19] = system: A498
[20] = system: NCI/ADR-RES

Structure (SMILES)	GI50 [1]	GI50 [2]	GI50 [3]	GI50 [4]	GI50 [5]	GI50 [6]	GI50 [7]	GI50 [8]	GI50 [9]	GI50 [10]	GI50 [11]	GI50 [12]	GI50 [13]	GI50 [14]	GI50 [15]	GI50 [16]	GI50 [17]	GI50 [18]	GI50 [19]	GI50 [20]
N#Cc1c(Cl)nc2ccccc2c1N=[N+]=[N-]	1.91 µM (inactive)	16.6 µM (inactive)	5.81 µM (inactive)	1.91 µM (inactive)	7.38 µM (inactive)	4.56 µM (inactive)	1.7 µM (inactive)	3.24 µM (inactive)	2.25 µM (inactive)	2.95 µM (inactive)	5.14 µM (inactive)	2.18 µM (inactive)	1.89 µM (inactive)	13.3 µM (inactive)	14.2 µM (inactive)	1.73 µM (inactive)	0.875 µM (active)	6.4 µM (inactive)	21.7 µM (inactive)	9.33 µM (inactive)
O=c1[nH]c(-c2ccccc2)nc2c1sc1nc3ccccc3n12	> 100 µM (inactive)	> 100 µM (inactive)	26.7 µM (inactive)	> 81.3 µM (inactive)	> 100 µM (inactive)	> 100 µM (inactive)	> 100 µM (inactive)	78.2 µM (inactive)	> 100 µM (inactive)	> 100 µM (inactive)	> 100 µM (inactive)	> 100 µM (inactive)	> 100 µM (inactive)	> 100 µM (inactive)	> 100 µM (inactive)	> 100 µM (inactive)	> 100 µM (inactive)	> 92.7 µM (inactive)	> 100 µM (inactive)	> 100 µM (inactive)
CCOC(=O)c1sc2ncnc(N)c2c1C	> 100 µM (inactive)	> 100 µM (inactive)	44.1 µM (inactive)	20.4 µM (inactive)	36 µM (inactive)	51.6 µM (inactive)	8.99 µM (inactive)	68.5 µM (inactive)	25.9 µM (inactive)	45.3 µM (inactive)	21.4 µM (inactive)	82.8 µM (inactive)	> 100 µM (inactive)	41.8 µM (inactive)	36.8 µM (inactive)	> 100 µM (inactive)	24.8 µM (inactive)	47.1 µM (inactive)	24.4 µM (inactive)	> 100 µM (inactive)
O=C(NCc1cccnc1)NCc1cccnc1	> 100 µM (inactive)	> 100 µM (inactive)	> 100 µM (inactive)	> 100 µM (inactive)	> 100 µM (inactive)	> 100 µM (inactive)	> 100 µM (inactive)	> 100 µM (inactive)	> 100 µM (inactive)	> 100 µM (inactive)	> 100 µM (inactive)	> 100 µM (inactive)	> 100 µM (inactive)	> 100 µM (inactive)	> 100 µM (inactive)	> 100 µM (inactive)	> 100 µM (inactive)	> 100 µM (inactive)	> 100 µM (inactive)	> 100 µM (inactive)
COc1ccc(-c2cc(-c3ccc(Nc4ccnc5cc(C(F)(F)F)ccc45)cc3)[nH]c(=O)c2C#N)cc1	> 50.6 µM (inactive)	> 100 µM (inactive)	10.1 µM (inactive)	> 100 µM (inactive)	39.6 µM (inactive)	> 88.7 µM (inactive)	49.7 µM (inactive)	> 41.8 µM (inactive)	98.9 µM (inactive)	> 72.1 µM (inactive)	> 100 µM (inactive)	> 100 µM (inactive)	24.9 µM (inactive)	> 34.5 µM (inactive)	99.8 µM (inactive)	> 100 µM (inactive)	9.51 µM (inactive)	> 100 µM (inactive)	> 40 µM (inactive)	> 100 µM (inactive)
N[C@H]1CCCC[C@@H]1N1C(=O)c2ccccc2C1(O)c1ccc(Cl)cc1 (stereo not given in full)	15 µM (inactive)	12.2 µM (inactive)	17 µM (inactive)	11.2 µM (inactive)	6.5 µM (inactive)	12.3 µM (inactive)	10.3 µM (inactive)	12.4 µM (inactive)	15.3 µM (inactive)	3.78 µM (inactive)	13.7 µM (inactive)	14 µM (inactive)	12.9 µM (inactive)	11.8 µM (inactive)	10.5 µM (inactive)	6.3 µM (inactive)	13.9 µM (inactive)	2.11 µM (inactive)	13.7 µM (inactive)	12.7 µM (inactive)
CN(Cc1ccccc1)/C(=N\C#N)N(Cc1ccccc1)Cc1ccccc1	20.3 µM (inactive)	31 µM (inactive)	34.8 µM (inactive)	24.4 µM (inactive)	15.1 µM (inactive)	22.3 µM (inactive)	16.9 µM (inactive)	34.4 µM (inactive)	34.6 µM (inactive)	27.3 µM (inactive)	34.7 µM (inactive)	25.2 µM (inactive)	20.6 µM (inactive)	17.9 µM (inactive)	18.4 µM (inactive)	40.4 µM (inactive)	0.0383 µM (active)	18.7 µM (inactive)	44.8 µM (inactive)	19.8 µM (inactive)
NS(=O)(=O)c1ccc(NC(=O)Nc2cccc3ccccc23)cc1	> 100 µM (inactive)	40.7 µM (inactive)	42.2 µM (inactive)	42.2 µM (inactive)	81.8 µM (inactive)	31.2 µM (inactive)	35.6 µM (inactive)	19.9 µM (inactive)	28.4 µM (inactive)	39.4 µM (inactive)	45.5 µM (inactive)	35.7 µM (inactive)	19.4 µM (inactive)	54.8 µM (inactive)	> 100 µM (inactive)	44.8 µM (inactive)	72.3 µM (inactive)	> 100 µM (inactive)	22.5 µM (inactive)	46 µM (inactive)
Cc1ccc(S(=O)(=O)NNC(=O)Nc2ccc([N+](=O)[O-])cc2)cc1	> 100 µM (inactive)	35.6 µM (inactive)	34.6 µM (inactive)	26.2 µM (inactive)	55 µM (inactive)	35.6 µM (inactive)	43.8 µM (inactive)	67.6 µM (inactive)	> 100 µM (inactive)	> 100 µM (inactive)	97.1 µM (inactive)	76 µM (inactive)	22.1 µM (inactive)	> 100 µM (inactive)	29 µM (inactive)	33 µM (inactive)	42.6 µM (inactive)	23.8 µM (inactive)	37.8 µM (inactive)	27.4 µM (inactive)
Nc1ncn2c(n1)nc1ccccc12	> 100 µM (inactive)	> 100 µM (inactive)	> 100 µM (inactive)	> 100 µM (inactive)	> 100 µM (inactive)	> 100 µM (inactive)	37.2 µM (inactive)	> 100 µM (inactive)	54.8 µM (inactive)	> 100 µM (inactive)	> 100 µM (inactive)	> 100 µM (inactive)	> 100 µM (inactive)	> 100 µM (inactive)	> 100 µM (inactive)	> 100 µM (inactive)	> 100 µM (inactive)	> 100 µM (inactive)	57 µM (inactive)	> 100 µM (inactive)
CCCCCC1=C/C(=C\c2[nH]c(-c3ccc[nH]3)cc2OC)N=C1C	< 0.01 µM (active)	0.0167 µM (active)	< 0.01 µM (active)	< 0.01 µM (active)	< 0.01 µM (active)	0.0136 µM (active)	< 0.01 µM (active)	< 0.01 µM (active)	0.0145 µM (active)	0.0215 µM (active)	< 0.01 µM (active)	0.0448 µM (active)	< 0.01 µM (active)	< 0.01 µM (active)	0.0316 µM (active)	< 0.01 µM (active)	< 0.01 µM (active)	< 0.01 µM (active)	0.0989 µM (active)	< 0.01 µM (active)
CC1=NN(c2ccccc2)C(=O)C1/N=N/c1ccc(S(N)(=O)=O)cc1 (stereo not given)	> 100 µM (inactive)	> 100 µM (inactive)	> 100 µM (inactive)	> 100 µM (inactive)	> 100 µM (inactive)	> 100 µM (inactive)	> 100 µM (inactive)	> 100 µM (inactive)	> 100 µM (inactive)	> 100 µM (inactive)	> 100 µM (inactive)	> 100 µM (inactive)	> 100 µM (inactive)	> 100 µM (inactive)	> 100 µM (inactive)	> 100 µM (inactive)	> 100 µM (inactive)	> 100 µM (inactive)	> 100 µM (inactive)	> 100 µM (inactive)
COC(=O)c1sc2c(=O)c(C(=O)OC)c(C(=O)OC)sc2c(=O)c1C(=O)OC	> 85.9 µM (inactive)	> 100 µM (inactive)	> 64.1 µM (inactive)	> 100 µM (inactive)	> 100 µM (inactive)	> 100 µM (inactive)	> 100 µM (inactive)	> 62.7 µM (inactive)	> 100 µM (inactive)	> 100 µM (inactive)	> 100 µM (inactive)	49 µM (inactive)	> 100 µM (inactive)	> 100 µM (inactive)	> 76 µM (inactive)	> 100 µM (inactive)	37.8 µM (inactive)	> 100 µM (inactive)	> 100 µM (inactive)	> 100 µM (inactive)
C=C1[C@H](OCC(C)C)[C@@H](OC(=O)C(C)CC)[C@@H](O)C(C)(C)/C=C/[C@H](C)C(=O)[C@@]2(O)C[C@H](C)[C@H](O)[C@@H]2[C@H]1OC(=O)C(C)CC (stereo not given in full)	4.99 µM (inactive)	1.38 µM (inactive)	1.66 µM (inactive)	5.45 µM (inactive)	1.7 µM (inactive)	5.92 µM (inactive)	1.79 µM (inactive)	4.78 µM (inactive)	8.83 µM (inactive)	10.2 µM (inactive)	7.29 µM (inactive)	6.62 µM (inactive)	4.01 µM (inactive)	1.26 µM (inactive)	2.23 µM (inactive)	5.24 µM (inactive)	3.84 µM (inactive)	5.41 µM (inactive)	3.28 µM (inactive)	6.82 µM (inactive)
